The target in this test is T1, rat NaPi-2b (Rattus norvegicus, UniProt Q9JJ09).
T1 construct: expressed in transfected cells; host or cells: Xenopus oocytes injected with cRNA
T1 sequence (Q9JJ09 1-695): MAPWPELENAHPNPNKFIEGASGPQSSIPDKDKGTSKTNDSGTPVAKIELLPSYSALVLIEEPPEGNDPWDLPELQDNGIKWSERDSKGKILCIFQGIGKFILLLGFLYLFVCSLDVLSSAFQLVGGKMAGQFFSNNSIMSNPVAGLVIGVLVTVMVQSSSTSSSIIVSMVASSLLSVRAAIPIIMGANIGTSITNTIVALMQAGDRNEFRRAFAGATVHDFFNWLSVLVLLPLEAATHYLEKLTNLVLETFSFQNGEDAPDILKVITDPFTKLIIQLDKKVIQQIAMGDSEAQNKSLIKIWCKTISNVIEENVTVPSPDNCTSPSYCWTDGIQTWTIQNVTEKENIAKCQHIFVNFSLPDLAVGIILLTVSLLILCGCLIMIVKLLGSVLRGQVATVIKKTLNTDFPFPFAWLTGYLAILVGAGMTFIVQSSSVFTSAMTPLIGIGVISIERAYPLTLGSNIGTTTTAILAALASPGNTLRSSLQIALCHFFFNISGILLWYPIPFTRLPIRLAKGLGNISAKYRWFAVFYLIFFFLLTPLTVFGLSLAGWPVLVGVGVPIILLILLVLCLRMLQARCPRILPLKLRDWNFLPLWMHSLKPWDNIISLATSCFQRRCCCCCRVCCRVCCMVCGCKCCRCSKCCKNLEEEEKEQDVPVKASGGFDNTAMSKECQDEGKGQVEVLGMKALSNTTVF
The test is described as follows: Sodium-dependent phosphate uptake of Xenopus oocytes which expressed NaPi-2b (32P). Format: cell-based. As to conditions: for IC50: Xenopus oocytes expressing rat NaPi-2b, 32P radioactive phosphorus, read-out: IC50 (phosphate uptake inhibitory activity); for inhibition at 300 µM: phosphate uptake, oocytes expressing rat NaPi-2b, determined from inhibition curve. The method, boiled down:
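Rat small-intestine NaPi-2b cRNA injected into Xenopus oocytes, expressed for 2 days. Sodium-dependent phosphate uptake measured with 32P; % inhibition at 300 and 100 μM taken from the same inhibition curve.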

The structures appear in SMILES notation. Bounds are passed on as bounds.

One may read the IC50 as the point on the concentration scale where inhibition reaches its midpoint. One may read the inhibition as the relative decrease from the control value, in per cent. High values mean a strong effect, low ones a weak effect.

On to `Cc1ccc(/C=N/NC(=O)c2cc3ccccc3cc2NC(=O)c2cccc(CN3CCN(CCO)CC3)c2)cc1` [Compound 970, 3-[4-(2-Hydroxy-ethyl)-piperazin-1-ylmethyl]-N-[3-(4-methyl-benzylidene-hydrazinocarbonyl)-naphthalen-2-yl]-benzamide], for which the IC50 is under 3 µM.
With `Cc1ccc(/C=N/NC(=O)c2cc3ccccc3cc2NC(=O)c2cccc(CN3CCN(CCO)CC3)c2)cc1C` [Compound 971, N-[3-(3,4-Dimethyl-benzylidene-hydrazinocarbonyl)-naphthalen-2-yl]-3-[4-(2-hydroxy-ethyl)-piperazin-1-ylmethyl]-benzamide], the IC50 was under 3 µM.
Same read-out and setting: for `O=C(Nc1cc2ccccc2cc1C(=O)N/N=C/c1ccc(Cl)c(C(F)(F)F)c1)c1cccc(CN2CCN(CCO)CC2)c1` [Compound 972, N-[3-(4-Chloro-3-trifluoromethyl-benzylidene-hydrazinocarbonyl)-naphthalen-2-yl]-3-[4-(2-hydroxy-ethyl)-piperazin-1-ylmethyl]-benzamide] the value was under 3 µM; for `COc1ccc(/C=N/NC(=O)c2cc3ccccc3cc2NC(=O)c2cccc(CN3CCN(CCO)CC3)c2)cc1` [Compound 973, 3-[4-(2-Hydroxy-ethyl)-piperazin-1-ylmethyl]-N-[3-(4-methoxy-benzylidene-hydrazinocarbonyl)-naphthalen-2-yl]-benzamide], under 3 µM.
Same read-out and setting: with `CC(O)CN(Cc1cccc(C(=O)Nc2cscc2C(=O)N/N=C/c2cccc(F)c2)c1)CC(C)O` (stereo not shown) [Compound 974, 3-{[Bis-(2-hydroxy-propyl)-amino]-methyl}-N-[4-(3-fluoro-benzylidene-hydrazinocarbonyl)-thiophen-3-yl]-benzamide] the figure was 12.6 µM.
On to `Cc1cccc(/C=N/NC(=O)c2cscc2NC(=O)c2cccc(CN(CC(C)O)CC(C)O)c2)c1` (stereo not shown) [Compound 975, 3-{[Bis-(2-hydroxy-propyl)-amino]-methyl}-N-[4-(3-methyl-benzylidene-hydrazinocarbonyl)-thiophen-3-yl]-benzamide], for which the IC50 turned out to be 17.4 µM.
The same measure, in the same setting: with `Cc1ccc(/C=N/NC(=O)c2cscc2NC(=O)c2cccc(CN(CC(C)O)CC(C)O)c2)cc1` (stereo not shown) [Compound 976, 3-{[Bis-(2-hydroxy-propyl)-amino]-methyl}-N-[4-(4-methyl-benzylidene-hydrazinocarbonyl)-thiophen-3-yl]-benzamide] the figure was 10.7 µM; with `Cc1ccc(/C=N/NC(=O)c2cscc2NC(=O)c2cccc(CN(CC(C)O)CC(C)O)c2)cc1C` (stereo not shown) [Compound 977, 3-{[Bis-(2-hydroxy-propyl)-amino]-methyl}-N-[4-(3,4-dimethyl-benzylidene-hydrazinocarbonyl)-thiophen-3-yl]-benzamide], 10.1 µM.
Turning to `CC(O)CN(Cc1cccc(C(=O)Nc2cscc2C(=O)N/N=C/c2ccc(Cl)c(C(F)(F)F)c2)c1)CC(C)O` (stereo not shown) [Compound 978, 3-{[Bis-(2-hydroxy-propyl)-amino]-methyl}-N-[4-(4-chloro-3-trifluoromethyl-benzylidene-hydrazinocarbonyl)-thiophen-3-yl]-benzamide], 300 µM produced 74.1% inhibition.
In turn, `COc1ccc(/C=N/NC(=O)c2cscc2NC(=O)c2cccc(CN(CC(C)O)CC(C)O)c2)cc1` (stereo not shown) [Compound 979, 3-{[Bis-(2-hydroxy-propyl)-amino]-methyl}-N-[4-(4-methoxy-benzylidene-hydrazinocarbonyl)-thiophen-3-yl]-benzamide] displayed an inhibition at 300 µM of 73.7%.
Take `O=C(Nc1cscc1C(=O)N/N=C/c1cccc(F)c1)c1cccc(CN2CCN(CCO)CC2)c1` [Compound 980, N-[4-(3-Fluoro-benzylidene-hydrazinocarbonyl)-thiophen-3-yl]-3-[4-(2-hydroxy-ethyl)-piperazin-1-ylmethyl]-benzamide]: the IC50 worked out at 13.8 µM.
Same read-out and setting: for `Cc1ccc(/C=N/NC(=O)c2cscc2NC(=O)c2cccc(CN3CCN(CCO)CC3)c2)cc1` [Compound 981, 3-[4-(2-Hydroxy-ethyl)-piperazin-1-ylmethyl]-N-[4-(4-methyl-benzylidene-hydrazinocarbonyl)-thiophen-3-yl]-benzamide] the value was 12.2 µM.
Same read-out and setting: with `Cc1ccc(/C=N/NC(=O)c2cscc2NC(=O)c2cccc(CN3CCN(CCO)CC3)c2)cc1C` [Compound 982, N-[4-(3,4-Dimethyl-benzylidene-hydrazinocarbonyl)-thiophen-3-yl]-3-[4-(2-hydroxy-ethyl)-piperazin-1-ylmethyl]-benzamide] the figure was 8.05 µM.
With `O=C(Nc1cscc1C(=O)N/N=C/c1ccc(Cl)c(C(F)(F)F)c1)c1cccc(CN2CCN(CCO)CC2)c1` [Compound 983, N-[4-(4-Chloro-3-trifluoromethyl-benzylidene-hydrazinocarbonyl)-thiophen-3-yl]-3-[4-(2-hydroxy-ethyl)-piperazin-1-ylmethyl]-benzamide], the IC50 came to 8.31 µM.
For the molecule `COc1ccc(/C=N/NC(=O)c2cscc2NC(=O)c2cccc(CN3CCN(CCO)CC3)c2)cc1` [Compound 984, 3-[4-(2-Hydroxy-ethyl)-piperazin-1-ylmethyl]-N-[4-(4-methoxy-benzylidene-hydrazinocarbonyl)-thiophen-3-yl]-benzamide], the IC50 was determined as 22.1 µM.
Still for that read-out and setting: for `Cc1ccc(/C=N/NC(=O)c2cc(F)ccc2NC(=O)c2cc(F)ccc2NC(=O)c2cccc(CN(CC(C)O)CC(C)O)c2)cc1C` (stereo not shown) [Compound 986, 2-(3-{[Bis-(2-hydroxy-propyl)-amino]-methyl}-benzoylamino)-N-[2-(3,4-dimethyl-benzylidene-hydrazinocarbonyl)-4-fluoro-phenyl]-5-fluoro-benzamide] the value was 29 µM.
The same measure, in the same setting: with `CC(O)CN(Cc1cccc(C(=O)Nc2ccc(F)cc2C(=O)Nc2ccc(F)cc2C(=O)N/N=C/c2cccc(F)c2)c1)CC(C)O` (stereo not shown) [Compound 988, 2-(3-{[Bis-(2-hydroxy-propyl)-amino]-methyl}-benzoylamino)-5-fluoro-N-[4-fluoro-2-(3-fluoro-benzylidene-hydrazinocarbonyl)-phenyl]-benzamide] the figure was 3.88 µM.
For the molecule `Cc1ccc(/C=N/NC(=O)c2sc(C(C)(C)C)cc2NC(=O)c2cccc(CN3CCN(CCO)CC3)c2)cc1C` [Compound 991, N-[5-Tert-butyl-2-(3,4-dimethyl-benzylidene-hydrazinocarbonyl)-thiophen-3-yl]-3-[4-(2-hydroxy-ethyl)-piperazin-1-ylmethyl]-benzamide], the inhibition at 300 µM amounted to 30.1%.
Same read-out and setting: with `CC(O)CN(Cc1cccc(C(=O)Nc2ccsc2C(=O)N/N=C/c2cccc(F)c2)c1)CC(C)O` (stereo not shown) [Compound 992, 3-{[Bis-(2-hydroxy-propyl)-amino]-methyl}-N-[2-(3-fluoro-benzylidene-hydrazinocarbonyl)-thiophen-3-yl]-benzamide] the figure was 31.9%.
Same read-out and setting: with `CC(O)CN(Cc1cccc(C(=O)Nc2ccsc2C(=O)N/N=C/c2ccc(Cl)c(C(F)(F)F)c2)c1)CC(C)O` (stereo not shown) [Compound 993, 3-{[Bis-(2-hydroxy-propyl)-amino]-methyl}-N-[2-(4-chloro-3-trifluoromethyl-benzylidene-hydrazinocarbonyl)-thiophen-3-yl]-benzamide] the figure was 39.7%; with `CCN(CC)Cc1cccc(C(=O)Nc2ccsc2C(=O)N/N=C/c2cccc(F)c2)c1` [Compound 995, 3-Diethylaminomethyl-N-[2-(3-fluoro-benzylidene-hydrazinocarbonyl)-thiophen-3-yl]-benzamide], 42.1%.
Turning to `C/C(=N\NC(=O)c1cc(Br)ccc1NC(=O)c1cccc(CN(CC(C)O)CC(C)O)c1)c1cccc(F)c1` (stereo not shown) [Compound 996, 3-{[Bis-(2-hydroxy-propyl)-amino]-methyl}-N-{4-bromo-2-[1-(3-fluoro-phenyl)-ethylidene-hydrazinocarbonyl]-phenyl}-benzamide], the IC50 was found to be 2.66 µM.
As to `COc1ccc(/C(C)=N/NC(=O)c2cc(Br)ccc2NC(=O)c2cccc(CN(CC(C)O)CC(C)O)c2)cc1` (stereo not shown) [Compound 997, 3-{[Bis-(2-hydroxy-propyl)-amino]-methyl}-N-{4-bromo-2-[1-(4-methoxy-phenyl)-ethylidene-hydrazinocarbonyl]-phenyl}-benzamide], the IC50 was determined as 7.88 µM.
For `CC(O)CN(Cc1cccc(C(=O)Nc2ccc(Cl)cc2C(=O)N/N=C/c2ccc(OCCCN(C)C)cc2)c1)CC(C)O` (stereo not shown) [Compound 998, 3-{[Bis-(2-hydroxy-propyl)-amino]-methyl}-N-{4-chloro-2-[4-(3-dimethylamino-propoxy)-benzylidene-hydrazinocarbonyl]-phenyl}-benzamide], the IC50 was 16.6 µM.
The same measure, in the same setting: with `CCN(CC)CCN(C)Cc1cccc(C(=O)Nc2ccc(Cl)cc2C(=O)N/N=C/c2ccc(OCCCN(C)C)cc2)c1` [Compound 999, N-{4-Chloro-2-[4-(3-dimethylamino-propoxy)-benzylidene-hydrazinocarbonyl]-phenyl}-3-{[(2-diethylamino-ethyl)-methyl-amino]-methyl}-benzamide] the figure was 58.2 µM.

The values above are taken from patent US8134015B2, “Compound inhibiting in vivo phosphorous transport and medicine containing the same” (Kyowa Hakko Kirin Co., Ltd., priority 2003, dated 2012).
